Assay: solubility in aqueous media
Type: physicochemical
Details: qualitative statement

## O.O=C(Nc1ccccc1F)NC1N=C(c2ccccc2)c2ccccc2NC1=O.O=S(=O)(O)c1ccccc1 (centres unmarked) [RSV604 Besylate Monohydrate Salt, 1-(2-Fluoro-phenyl)-3-(2-oxo-5-phenyl-2,3-dihydro-1H-benzo[e][1,4]diazepin-3-yl)-urea besylate monohydrate]
  solubility in aqueous media: particularly good solubility properties

## O=C(Nc1ccccc1F)NC1N=C(c2ccccc2)c2ccccc2NC1=O (centres unmarked) [RSV604 free base, 1-(2-Fluoro-phenyl)-3-(2-oxo-5-phenyl-2,3-dihydro-1H-benzo[e][1,4]diazepin-3-yl)-urea]
  solubility in aqueous media: low solubility

From patent US7977330B2, “Salts and crystal modifications thereof” (Novartis AG, priority 2006, dated 2011)
